The record followed here is patent US4233291A (priority 1977, dated 1980).

In assay [1] the test system is leukemic cells L 1210. Further details: species or system mice. Conditions: mouse, in vivo.
The subject of assay [2] is peritoneal macrophages from unstimulated rats (Fisher strain). Nature of the assay: Stimulation of the activities of the macrophages, cultivated with the substance. The format is cell-based. Conditions: 16 hours incubation. As to the method:
The peritoneal macrophages from unstimulated rats (Fisher strain) are prelevated through peritoneal washing and isolation on plastic rack. They are cultivated for a night with dosages of the depsipeptide ranging from 1 picogramm to 1 nanogramm/ml.
The content in proteins, in lysosomal β-glucoronidase, and in cytoplasmic leucine-amino peptidase are determined on the cells previously lysed with 0.05% Triton X-100.
In the same manner, incubation has also been performed with a solution of lipopolysaccharide from Escherichia coli and Muramyldipeptide as reference substances.
Amounts of cellular enzymes and proteins in the macrophages after 16 hours incubation.
The content in proteins is expressed in g/10^6 cells and that in β-glucuronidase in mMol of substrate hydrolysed by 10^6 cells per hour.

For assay [3], the system named is larvae of schistosoma mansoni. Nature of the assay: Release of 51 chromium from larvae of schistosoma mansoni, cytotoxicity in vivo. The note with it: macrophages of the rat stimulated in vivo. The text has this: The depsipeptide from Fusarium equiseti has been tested to determine its action in vivo on the cytotoxicity induced in the intraperitoneal macrophages of the rat against the larvae of schistosoma mansoni.
The macrophages are stimulated either in vitro or in vivo and are contacted with a suspension of larvae of schistosoma mansoni previously tagged with 51 chromium.
This measure reflects the significance of cellular lesions on the surface of the schistosomules. The radio activity released in the medium is expressed as a percentage of the total radio-activity present in the schistosomules at the beginning of the experiments.

Setting [4] is: 1 ng/ml (row printed after the first 100 ng/ml).
The mark [5] stands for this setting: 10 ng/ml (second row so printed).
Where [6] appears, read: 100 ng/ml (second row so printed, last row).

`O=P1(N(CCCl)CCCl)NCCCO1` (stereo not drawn) [Cyclophosphamide]: in assay [1], the survival time result is listed as “extends in a statiscally significative manner”.

Consider `CC(=O)N[C@@H]1[C@@H](O[C@H](C)C(=O)N[C@@H](C)C(=O)N[C@H](CCC(=O)O)C(N)=O)[C@H](O)[C@@H](CO)O[C@H]1O` [Muramyldipeptide], for which the Proteins is 46,1 ± 2,2 g/10^6 cells in assay [2] (1 pg/ml); 44,8 ± 0,7 g/10^6 cells in assay [2] (10 pg/ml); 44,6 ± 1,9 g/10^6 cells in assay [2] (100 pg/ml); 45,1 ± 0,9 g/10^6 cells in assay [2] (setting [4]); 44,0 ± 1,8 g/10^6 cells in assay [2] (1 ng); 48,1 ± 1,8 g/10^6 cells in assay [2] (setting [5]). For the same compound, the Proteins in assay [2] (10 ng/ml) was 43,4 ± 1,8 g/10^6 cells; in assay [2] (setting [6]), 55,3 ± 3,1 g/10^6 cells; in assay [2] (100 ng/ml), 40,5 ± 0,7 g/10^6 cells. Besides, the β-glucuronidase in assay [2] (1 pg/ml) was 36,5 ± 0,1 mMol of substrate hydrolysed b; in assay [2] (10 pg/ml), 36,3 ± 6,4 mMol of substrate hydrolysed b; in assay [2] (100 pg/ml), 41,0 ± 2,9 mMol of substrate hydrolysed b; in assay [2] (setting [4]), 30,6 ± 3,8 mMol of substrate hydrolysed b; in assay [2] (1 ng), 34,0 ± 5,3 mMol of substrate hydrolysed b; in assay [2] (setting [5]), 32,2 ± 3,0 mMol of substrate hydrolysed b. The β-glucuronidase in assay [2] (10 ng/ml) was 39,6 ± 6,1 mMol of substrate hydrolysed b; in assay [2] (setting [6]), 39,0 ± 1,6 mMol of substrate hydrolysed b; in assay [2] (100 ng/ml), 23,9 ± 6,2 mMol of substrate hydrolysed b. Further, the “release of 51 Cr (change)” value in assay [3] (1 g) was “+6%”; in assay [3] (100 g), “+10%”.
